Experimental data reported in ChEMBL document CHEMBL1128048, “Synthesis of chromophoric dipeptides as substrates for papain” (Bioorg Med Chem Lett, 1995).

Tests used:
Type in all cases: ADME
[1] = Compound was evaluated for Michaelis-Menten constant, Km
[2] = Compound was evaluated for catalytic constant, Kcat
[3] = Ratio of catalytic constant to Michaelis-Menten constant (Kcat/Km)

Km [1] [Me-3]	k cat [2] [min⁻¹]	Ratio [3]	SMILES
0.062	0.2	3.2	CCOC(=O)/C(=C\c1ccc(C)s1)NC(=O)[C@H](Cc1ccccc1)NC(C)=O
3.9	0.2	0.05	CCOC(=O)/C(=C\c1ccc(C)s1)NC(=O)[C@H](C)NC(C)=O
–	0.07	–	Cc1ccc(/C=C\C(=O)n2ccnc2)s1
–	0.08	–	CCOC(=O)N/C(=C/c1ccc(C)s1)C(=O)n1ccnc1
